Measured values as given in patent publication US20230381774A1, “MICROFLUDIC LAB-ON-CHIP DEVICE, MATRIX, SMALL MOLECULES AND THREE-DIMENSIONAL SPHEROIDS FOR CELL REPROGRAMMING” (The Regents of the University of California, priority 2022, published 2023).
Entries after “also recorded” stand apart in the source; their conditions may differ.

Experiments:
[1] = system: primary human neonatal dermal fibroblasts (hNDFs); assay: Spatial iN reprogramming in 3D spheroids (Tuj1 staining); type: cell-based; details: 3 days of reprogramming, relative to no-treatment controls
Description: For the reduction to practice, primary human neonatal dermal fibroblasts (hNDFs) were transduced with doxycycline (Dox)-inducible lentiviral vectors for the BAMN factors. After Dox induction in monolayer to ensure unbiased activation of the transgenes, hNDFs were either plated onto Matrigel-coated cover slips as 2D controls or centrifuged in microwells to form 3D aggregates, or “spheroids” (FIG. 9A). The expression of neuron-specific β-tubulin III (Tuj1) was used as a marker of neuronal fate, as is convention. Tuj1 expression began earlier in spheroids than in 2D culture, appearing as early as day 2 (two days after Dox induction and one day after spheroid formation) (FIG. 9BC). To evaluate relative reprogramming efficiency, spheroids were replated onto Matrigel-coated cover slips after three days without enzymatic disaggregation.
Direct reprogramming involves both disruption of the existing regulatory network (generally early on) and establishment of another. The initial nonspecific disruption is often mechanistically associated with cell cycle regulation, cell senescence, chromatin inactivation, and genome stability. To assess the impact of mechanobiological changes associated with spheroid culture on direct reprogramming, primary human neonatal dermal fibroblasts (hNDFs) were transduced with doxycycline (dox)-inducible lentiviral vectors for the BAMN factors. […]

H3K9me3 = H3K9me3 level in fibroblasts (immunostaining); type: cell-based, mouse; details: for H3K9me3 level: agent alone
Experimental: Samples collected for immunofluorescence staining at the indicated time points were washed once with PBS and fixed in 4% paraformaldehyde for 15 minutes. Samples were washed three times with PBS for 5 minutes each and permeabilized using 0.5% Triton X-100 for 10 minutes. After three subsequent PBS washes, samples were blocked with 5% normal donkey serum (NDS; Jackson Immunoresearch, 017000121) in PBS for 1 hour. Samples were incubated with primary antibodies (Supplementary Table S1 in Song et al.) in antibody dilution buffer (1% normal donkey serum (NDS)+0.1% Triton X-100 in PBS) for either 1 hour or overnight at 4° C. followed by three PBS washes and a 1-hour incubation with Alexa Fluor® 488- and/or Alexa Fluor® 546-conjugated secondary antibodies (Molecular Probes). Nuclei were stained with DAPI in PBS for 10 minutes. Epifluorescence images were collected using a Zeiss Axio Observer Z1 inverted fluorescence microscope and analyzed using ImageJ. Confocal images were collected using a Leica SP8-STED/FLIM/FCS Confocal and analyzed using ImageJ.
Average lamin and histone marker intensities per nuclei were quantified using an ImageJ macro. Gaussian blur, thresholding, watershed, and analyze particle functions were applied to the DAPI channel to create individual selections for each nucleus. This mask was applied to the corresponding stain image to measure the average fluorescence intensity within each nucleus.

[2] = system: BAM-transduced fibroblasts; assay: iN reprogramming of BAM-transduced fibroblasts with chemical/siRNA treatment and microfluidic squeezing (Tuj1 staining, day 7); type: cell-based, mouse; details: for iN reprogramming efficiency: agent alone without squeezing, vs control, Bix01294 1 μM, JIB-04 100 nM, Decitabine 0.5 μM, 24 hours; for increase of iN conversion: alone, at its optimal concentration; for nuclear deformation-induced iN reprogramming efficiency: pre-treatment followed by squeezing in 7-μm microchannels, vs squeezed-only group
Experimental: Fibroblasts were isolated from ear tissues of adult (1 month-old) C57BL/6 mice, Tau-EGFP reporter mice (Jackson Laboratory, 004779) and R26-M2rtTA;Col1a1-tetO-H2B-GFP compound mutant mice (Jackson Laboratory, 016836), and expanded in fibroblast medium: DMEM (Gibco, 11965), 10% fetal bovine serum (FBS; Gibco, 26140079) and 1% penicillin/streptomycin (GIBCO, 15140122). For all experiments, passage-2 cells were used and synchronized upon reaching 80% confluency using DMEM with 1% FBS for 24 hours before the transduction with viruses containing BAM constructs. The following day (day 0) the medium was changed to mouse embryonic fibroblasts (MEF) medium containing doxycycline (2 ng/ml, Sigma) to initiate the expression of the transgenes and thus, reprogramming. After 6 hours, transduced fibroblasts were passaged, and either subjected to microfluidic deformation using microchannels of various widths. Cells were then seeded onto glass slides coated with 0.1 mg/mL fibronectin (ThermoFisher, 33016015) overnight at a density of 3,000 cells/cm^2. Twenty-four hours later (day 1), cells were cultured in N2B27 medium: DMEM/F12 (Gibco, 11320033), N-2 supplement (Gibco, 17502048), B-27 supplement (Gibco, 17504044), 1% penicillin/streptomycin, and doxycycline (2 ng/ml), and half medium changes were performed every 2 days. On day 7 after microfluidic deformation, cells were fixed and stained for Tuj1 to determine the reprogramming efficiency. iN cells were identified based on positive Tuj1 staining and a neuronal morphology. The reprogramming efficiency was determined as the percentage of iN cells on day 7 relative to the number of the cells initially seeded. For long-term studies where maturation and functionality of the iN cells were examined, cells were kept in culture for 5 weeks. Reprogramming of iPSC from wild-type fibroblasts was performed as described previously^18.
To determine the role of H3K9 methylation in microfluidic device-induced iN reprogramming, BAM-transduced fibroblasts were treated with the H3K9 methyltransferase inhibitor Bix-01294 (Cayman chemical, 13124) or demethylase inhibitor JIB-04 (Cayman chemical, 15338) at the indicated concentrations for 24 hours prior to introduction into the microdevice. Parallel conditions with DMSO served as a control. The iN reprogramming efficiency was determined via Tuj1 staining 7 days after squeezing.
To determine the involvement of ion channels in microfluidic device-induced iN reprogramming, calcium channel blocker Amlodipine (Cayman chemical, 14838), potassium channel blocker Quinine (Cayman chemical, 23958) and sodium channel blocker procainamide (Cayman chemical, 24359) were used to inhibit calcium, potassium, and sodium ion channels, respectively. BAM-transduced fibroblasts were treated with small molecule blockers at the indicated concentrations for 12 hours prior to being introduced into the microfluidic device. Parallel conditions with DMSO served as a control. The iN reprogramming efficiency was determined via Tuj1 staining 7 days after squeezing.

[3] = system: BAM-transduced fibroblasts; assay: iN reprogramming of BAM-transduced fibroblasts with cytoskeletal and adhesion inhibitors (TUBB3+ iN cells, 2 weeks); type: cell-based, mouse; details: Y-27632 20 μM, nocodazole 0.3 μM, cytochalasin D 1 μM, jasplakinolide 0.05 μM; U0126 various doses
Experimental: To examine whether these changes in cell stiffness, actin structure and expression of contractility-mediating genes were involved in iN reprogramming, we evaluated the effects of disrupting the cytoskeleton using small molecule inhibitors. For these experiments, BAM-transduced fibroblasts were reprogrammed as in FIG. 1A and chemical compounds known to perturb the cytoskeleton were added to the culture medium on day 1 to evaluate their effects on the reprogramming process. […] The reprogramming efficiency was determined as the percentage of TUBB3*-iN cells normalized to the number of cells plated at 24 hours post-seeding (i.e., day 0). First, we tested whether disruption of cytoskeletal contractility could influence the direct reprogramming of fibroblasts into neurons using blebbistatin, a non-muscle myosin II inhibitor^22-24. We observed that iN cells could be derived in the absence and presence of blebbistatin (FIG. 3A). […] In particular, treatment with 10 μM blebbistatin generated the highest number of iN cells and increased the reprogramming efficiency by approximately 4.5-fold compared to the control, therefore, this concentration was used in all subsequent experiments. […] As Ascl1 has been identified as a pioneer factor for iN reprogramming and transduction of Ascl1 alone is sufficient to generate iN cells^25,26, we further investigated whether blebbistatin could influence iN conversion by Ascl1 induction.
After transduction, mouse fibroblasts were seeded onto multi-well tissue culture-treated polystyrene dishes (Falcon) coated with laminin (0.1 mg/ml, Corning) at 4,000 cells per cm^2. Twenty-four hours after seeding, the medium was replaced to MEF medium containing doxycycline (2 μg/ml, Sigma). The following day (i.e., day 1) the medium was changed to N3 medium (DMEM/F12 [GIBCO]+N2 supplement [Invitrogen]+B27 supplement [Invitrogen]+1% penicillin/streptomycin [Gibco]+ doxycycline [2 μg/ml, Sigma]) and the cultures were maintained in this medium for the duration of the experiments. For Ascl1-only reprogramming, N3 medium was further supplemented with BDNF (5 ng/ml, R&D systems) and GDNF (5 ng/ml, R&D systems) after day 7. For cytoskeletal and cell adhesion disruptions, Blebbistatin (Millipore), Y-27632 (20 μM; Cayman Chemical), Nocodazole (0.3 μM; Sigma), Cytochalasin D (1 μM; Sigma), Jasplakinolide (0.05 μM; Cayman Chemical) and PF573228 (Sigma) were administered in N3 medium on day 1 and for the first 7 days of reprogramming (unless stated otherwise) and used at the indicated concentrations. Culture medium was replenished every 2 days during reprogramming to maintain the activity of the small molecules. After culturing for the desired length (14 days for BAM and 21 days for Ascl1 only), the induced neuronal (iN) cells were analyzed and the reprogramming efficiency was determined.
The reprogramming efficiency was determined by as the percentage of TUBB3^+ iN cells in each condition normalized to the number of cells plated at 24 hours post-seeding. Epifluorescence images were collected using a Zeiss Axio Observer.D1, Zeiss Axio Observer.Z1, and ImageXpress Micro XLS System (Molecular Devices), whereas confocal images were acquired using a Zeiss LSM710 microscope and Leica SP8 Confocal Laser Scanning microscope.

histone marks = assay: Immunofluorescence of histone marks in non-transduced fibroblasts; type: cell-based, mouse; details: for euchromatin marks (AcH3, H3K4me3, H3K4me1): global, 10 μM blebbistatin or 5 μM PF573228, 2 hours, vs control; for histone trends compared with blebbistatin: other cytoskeletal compounds
Experimental: For immunostaining, cells were fixed with 4% paraformaldehyde (Electron Microscopy Sciences), permeabilized with 0.5% Triton-X-100 (Sigma), and blocked with 5% donkey serum (Jackson Immunoresearch) in phosphate buffered saline (PBS). For actin-cytoskeleton staining, samples were incubated with fluorescein isothiocyanate-conjugated phalloidin (Invitrogen) for 1 hour. Primary antibodies were incubated for 1 hour at room temperature or overnight at 4° C., followed by 1-hour incubation with Alexa 488 and/or Alexa 546-labeled secondary antibodies (Molecular Probes). Nuclei were stained with 4,6-diamino-2-phenylindole (DAPI) (Invitrogen).
Quantification of histone intensity per nuclei was performed using an ImageJ macro. DAPI-stained nuclei were segmented using gaussian blur, thresholding, watershed, and analyze particle functions to identify individual nuclei. This mask was applied to the corresponding stained fluorescence channel to quantify the average fluorescence intensity within each nucleus.

Cc1cccc(-c2nn(C(=S)Nc3ccccc3)cc2-c2ccnc3ccccc23)n1 [A83-01]
spatial Tuj1+ reprogramming patterns, inhibitor alone [1]: did not affect spatial Tuj1+ reprogramming patterns

COc1cc2nc(N3CCCN(C)CC3)nc(NC3CCN(Cc4ccccc4)CC3)c2cc1OC [Bix01294]
H3K9me3 level (H3K9me3): specifically suppressed H3K9me3 in a dose-dependent manner
iN reprogramming efficiency [2]: partially mimicked the squeezing effect on the reprogramming efficiency
increase of iN conversion [2]: about 2 fold
nuclear deformation-induced iN reprogramming efficiency [2]: slightly increased the reprogramming efficiency compared to the squeezed-only group

Nc1ncn([C@H]2C[C@H](O)[C@@H](CO)O2)c(=O)n1 [Decitabine]
increase of iN conversion [2]: about 2 fold

Clc1ccc(N/N=C(\c2ccccc2)c2ccccn2)nc1 [JIB-04]
H3K9me3 level (H3K9me3): significantly increased H3K9me3
decrease of H3K9me3 by squeezing (H3K9me3; pre-treated for 24 hours, then 7-μm channels): much less than the group without JIB-04 treatment
iN reprogramming efficiency [2]: reduced the reprogramming efficiency compared to the control
nuclear deformation-induced iN reprogramming efficiency [2]: strikingly suppressed nuclear deformation-induced iN reprogramming

COc1cc(-c2cc(-c3cccc(O)c3)cnc2N)cc(OC)c1OC [K02288]
spatial Tuj1+ reprogramming patterns, inhibitor alone [1]: did not affect spatial Tuj1+ reprogramming patterns

N#CC(=C(/N)Sc1ccccc1N)/C(C#N)=C(\N)Sc1ccccc1N [U0126]
reprogramming efficiency relative to control [3]: not significantly altered

C[C@@H](N)[C@H]1CC[C@H](C(=O)Nc2ccncc2)CC1 [Y-27632]
reprogramming efficiency relative to control [3]: increased the yield of iN cells similar to blebbistatin, although to a lesser degree

C=C1[C@@H](C)[C@H]2[C@H](Cc3ccccc3)NC(=O)[C@]23[C@H](OC(C)=O)/C=C/[C@@](C)(O)C(=O)[C@@H](C)C/C=C/[C@H]3[C@@H]1O [cytochalasin D]
euchromatin marks (AcH3, H3K4me3, H3K4me1) (histone marks): decreasing euchromatin marks (e.g., AcH3)
histone trends compared with blebbistatin (histone marks): no other cytoskeletal disrupting compounds
reprogramming efficiency relative to control [3]: reduced the reprogramming efficiency relative to control; also recorded: inhibiting iN conversion

C/C1=C\[C@H](C)C[C@H](C)OC(=O)C[C@H](c2ccc(O)cc2)NC(=O)[C@@H](Cc2c(Br)[nH]c3ccccc23)N(C)C(=O)[C@H](C)NC(=O)[C@@H](C)C1 [jasplakinolide]
euchromatin marks (AcH3, H3K4me3, H3K4me1) (histone marks): decreasing euchromatin marks (e.g., AcH3)
histone trends compared with blebbistatin (histone marks): no other cytoskeletal disrupting compounds
reprogramming efficiency relative to control [3]: reduced the reprogramming efficiency relative to control; also recorded: inhibiting iN conversion

COC(=O)Nc1nc2ccc(C(=O)c3cccs3)cc2[nH]1 [nocodazole]
euchromatin marks (AcH3, H3K4me3, H3K4me1) (histone marks): decreasing euchromatin marks (e.g., AcH3)
histone trends compared with blebbistatin (histone marks): no other cytoskeletal disrupting compounds
reprogramming efficiency relative to control [3]: resulted in a reduction in the reprogramming efficiency; also recorded: inhibiting iN conversion

CCCC(CCC)C(=O)O [valproic acid]
iN reprogramming efficiency [2]: slightly increased iN reprogramming efficiency
nuclear deformation-induced iN reprogramming efficiency [2]: additive to mechanical squeezing
